The values below come from patent publication US10907197B2, “Probes for imaging huntingtin protein” (CHDI Foundation, Inc., priority 2014, dated 2021).

For one assay, the target named is T1, Q46 protein aggregates (Homo sapiens, UniProt P42858, INS38QQQQQQQQQQQQQQQQQQQQQQQQQ).
T1 construct: 33 μM GST-Q46 was incubated with 150 μg/mL thrombin in assay buffer (150 mM NaCl, 50 mM Tris pH 8.0) and 2 mM CaCl2 for 16 hr at 37° C; fused on or other part: GST at the N-terminus
The assay is described as follows: Q46 Radioligand Binding Assay (RBA). The note with it: displacement of 10 nM [3H3]MK-3328 from 5 μM Q46 protein aggregates, 60 min at 37° C. On the procedure: Q46 Radioligand Binding Assay
For radioligand binding assays (RBA) GST-Q46 protein was generated based on a previous publication (Scherzinger et al. Cell, Vol. 90, 549-558, Aug. 8, 1997). For experiments 33 μM GST-Q46 was incubated with 150 μg/mL thrombin in assay buffer (150 mM NaCl, 50 mM Tris pH 8.0) and 2 mM CaCl2 for 16 hr at 37° C. Aggregated Q46 was pelleted by centrifugation for 5 min at 13,000 rpm in a bench top centrifuge and re-dissolved in the same volume of assay buffer. Test compounds were prepared by titration in DMSO at 11 concentrations from 33 μM to 1 nM. For the RBA, Q46 protein aggregates and test compounds were pre-incubated in assay buffer for 20 min at room temperature, in 140 μL/well in a 96-well plate (pp, round bottom). Then, ligand was added in 10 μL/well and incubated for 60 min at 37° C. Final assay concentrations were 1 μM to 30 pM test compound, 5 μM Q46 protein (equivalent monomer concentration) and 10 nM ligand [^3H3]MK-3328 (Harrision et al., ACS Med. Chem. Lett., 2 (2011), pp 498-502). Samples were transferred onto GF/B filter plates and washed 2× with 200 μL PBS using a Filtermate Harvester. After drying filter plates for 1 hr at 37° C., the back of the plates was sealed with foil and 30 μL/well scintillation fluid (Packard MicroScint 40) was added, incubated for incubated for 15 min in the dark and counted in a TopCount reader. […] IC50 values were determined with a sigmoidal inhibition model with four variables (top, bottom, slope, IC50) in a global fit using the normalized replicate data.

In assay [1] the test system is NFT in sections of AD brain tissue. The note with it: cited from earlier work.
The test system of assay [2] is recombinant tau and amyloid β1-42 (Aβ1-42) aggregates. The note with it: higher affinity for the tau aggregates than Aβ1-42 aggregates; cited from earlier work.

Bounds are passed on as bounds.

T1 sequence (P42858 with tags, fused parts or gaps with the stated changes): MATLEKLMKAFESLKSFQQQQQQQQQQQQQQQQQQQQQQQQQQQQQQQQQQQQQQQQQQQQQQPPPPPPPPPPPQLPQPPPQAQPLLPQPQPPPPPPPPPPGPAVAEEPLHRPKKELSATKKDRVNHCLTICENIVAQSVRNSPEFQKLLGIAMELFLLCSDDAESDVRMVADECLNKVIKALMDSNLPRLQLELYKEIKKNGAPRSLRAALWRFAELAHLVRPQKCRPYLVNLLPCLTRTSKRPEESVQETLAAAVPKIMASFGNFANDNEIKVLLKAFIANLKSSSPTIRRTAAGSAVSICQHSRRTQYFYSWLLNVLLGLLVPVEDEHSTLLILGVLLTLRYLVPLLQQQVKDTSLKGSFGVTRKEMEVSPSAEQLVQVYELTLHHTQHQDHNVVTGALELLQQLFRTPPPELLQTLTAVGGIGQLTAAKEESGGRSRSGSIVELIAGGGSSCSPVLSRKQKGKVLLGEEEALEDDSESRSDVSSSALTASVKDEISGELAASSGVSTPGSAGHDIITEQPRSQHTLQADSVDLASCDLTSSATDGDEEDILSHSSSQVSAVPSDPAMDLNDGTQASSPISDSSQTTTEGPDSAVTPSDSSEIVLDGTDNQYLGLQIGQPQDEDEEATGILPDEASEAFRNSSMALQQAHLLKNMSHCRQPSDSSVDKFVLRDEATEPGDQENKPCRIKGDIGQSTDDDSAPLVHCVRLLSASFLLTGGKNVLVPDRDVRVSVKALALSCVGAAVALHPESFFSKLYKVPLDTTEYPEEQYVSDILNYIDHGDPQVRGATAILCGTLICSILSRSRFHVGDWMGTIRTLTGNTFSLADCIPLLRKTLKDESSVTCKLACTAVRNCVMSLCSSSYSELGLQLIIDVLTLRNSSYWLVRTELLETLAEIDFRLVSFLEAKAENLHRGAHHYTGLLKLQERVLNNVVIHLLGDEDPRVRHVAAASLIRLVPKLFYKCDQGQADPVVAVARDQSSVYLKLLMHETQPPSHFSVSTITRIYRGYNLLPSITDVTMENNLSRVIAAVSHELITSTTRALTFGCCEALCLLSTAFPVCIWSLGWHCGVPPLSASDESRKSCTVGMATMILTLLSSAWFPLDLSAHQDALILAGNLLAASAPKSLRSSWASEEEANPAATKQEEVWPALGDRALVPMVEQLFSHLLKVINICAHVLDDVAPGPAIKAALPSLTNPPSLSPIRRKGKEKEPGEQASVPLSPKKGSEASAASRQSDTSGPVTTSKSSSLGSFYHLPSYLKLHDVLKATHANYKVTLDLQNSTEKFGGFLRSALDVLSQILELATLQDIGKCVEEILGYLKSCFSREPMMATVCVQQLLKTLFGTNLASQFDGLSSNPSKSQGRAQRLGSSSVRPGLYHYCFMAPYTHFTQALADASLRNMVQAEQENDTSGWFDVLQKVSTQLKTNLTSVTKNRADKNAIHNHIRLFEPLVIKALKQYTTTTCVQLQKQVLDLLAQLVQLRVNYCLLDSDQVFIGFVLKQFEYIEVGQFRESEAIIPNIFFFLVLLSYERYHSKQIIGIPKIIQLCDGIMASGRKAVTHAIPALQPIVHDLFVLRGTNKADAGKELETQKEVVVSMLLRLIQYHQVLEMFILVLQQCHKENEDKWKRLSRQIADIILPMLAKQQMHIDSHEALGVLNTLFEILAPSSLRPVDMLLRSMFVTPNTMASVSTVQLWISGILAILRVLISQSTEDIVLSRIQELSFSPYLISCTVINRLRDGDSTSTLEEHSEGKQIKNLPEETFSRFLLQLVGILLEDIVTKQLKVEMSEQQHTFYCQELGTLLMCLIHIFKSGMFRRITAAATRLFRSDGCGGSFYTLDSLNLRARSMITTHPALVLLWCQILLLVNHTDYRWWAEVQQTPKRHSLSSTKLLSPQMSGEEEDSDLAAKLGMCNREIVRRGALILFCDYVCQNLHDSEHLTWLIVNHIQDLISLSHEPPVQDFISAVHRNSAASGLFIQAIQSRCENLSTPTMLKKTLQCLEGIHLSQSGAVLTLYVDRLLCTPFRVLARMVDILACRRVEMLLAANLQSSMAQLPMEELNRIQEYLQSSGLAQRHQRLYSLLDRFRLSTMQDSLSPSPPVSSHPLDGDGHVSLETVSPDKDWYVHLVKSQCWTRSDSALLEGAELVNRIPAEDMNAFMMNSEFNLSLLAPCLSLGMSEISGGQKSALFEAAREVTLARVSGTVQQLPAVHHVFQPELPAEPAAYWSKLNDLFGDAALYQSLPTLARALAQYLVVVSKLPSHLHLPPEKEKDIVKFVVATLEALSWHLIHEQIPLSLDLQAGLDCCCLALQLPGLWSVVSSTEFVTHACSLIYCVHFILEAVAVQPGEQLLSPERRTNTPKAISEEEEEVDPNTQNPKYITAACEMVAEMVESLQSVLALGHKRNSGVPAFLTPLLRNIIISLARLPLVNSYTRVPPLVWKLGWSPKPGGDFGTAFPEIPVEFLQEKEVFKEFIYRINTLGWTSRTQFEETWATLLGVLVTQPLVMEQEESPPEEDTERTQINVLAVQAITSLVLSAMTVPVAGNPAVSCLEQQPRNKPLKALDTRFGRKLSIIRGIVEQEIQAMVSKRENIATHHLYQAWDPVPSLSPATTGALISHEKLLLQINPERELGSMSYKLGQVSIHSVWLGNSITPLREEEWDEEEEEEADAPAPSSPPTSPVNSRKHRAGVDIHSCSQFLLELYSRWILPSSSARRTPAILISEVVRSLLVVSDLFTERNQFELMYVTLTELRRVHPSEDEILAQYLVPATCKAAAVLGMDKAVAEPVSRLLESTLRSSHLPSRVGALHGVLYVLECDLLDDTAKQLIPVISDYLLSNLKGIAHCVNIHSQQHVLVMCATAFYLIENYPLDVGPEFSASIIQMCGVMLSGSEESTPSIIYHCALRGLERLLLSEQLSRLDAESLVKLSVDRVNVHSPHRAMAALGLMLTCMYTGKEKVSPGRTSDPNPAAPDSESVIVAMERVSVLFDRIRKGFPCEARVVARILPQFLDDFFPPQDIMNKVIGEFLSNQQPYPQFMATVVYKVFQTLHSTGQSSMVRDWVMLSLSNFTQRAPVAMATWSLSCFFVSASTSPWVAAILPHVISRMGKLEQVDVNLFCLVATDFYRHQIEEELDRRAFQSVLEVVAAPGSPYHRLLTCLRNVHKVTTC

The term IC50 denotes the concentration at which inhibition is half-maximal. In turn, `COc1ccc2nc(-c3cccnc3)oc2c1` [6-methoxy-2-(pyridin-3-yl)-1,3-benzoxazole] had an IC50 at Q46 protein aggregates of 100 to 500 nM.

In the case of `N#Cc1cnccc1-c1cc2cc(OCCO)ccc2o1` [4-[5-(2-hydroxyethoxy)-1-benzofuran-2-yl]pyridine-3-carbonitrile], the IC50 on Q46 protein aggregates fell in the range of 100 to 500 nM.

`COc1cnc2oc(-c3ccccc3C#N)cc2c1` [2-{5-methoxyfuro[2,3-b]pyridin-2-yl}benzonitrile] registered a half-inhibitory concentration (IC50) on Q46 protein aggregates of less than 100 nM.

Regarding `N#Cc1cnccc1-c1cc2cc(OCCF)ccc2o1` [4-[5-(2-fluoroethoxy)-1-benzofuran-2-yl]pyridine-3-carbonitrile], the IC50 at Q46 protein aggregates was less than 100 nM.

In the case of `COc1ccc2nc(-c3ccccc3C#N)oc2c1` [2-(6-methoxy-1,3-benzoxazol-2-yl)benzonitrile], the IC50 on Q46 protein aggregates was less than 100 nM.

As to `Nc1ccc2oc(-c3cccnc3)nc2c1` [2-(pyridin-3-yl)-1,3-benzoxazol-5-amine], the IC50 on Q46 protein aggregates was more than 500 nM.

`COc1ccc2nc(-c3ncccc3Br)sc2c1` [2-(3-bromopyridin-2-yl)-6-methoxy-1,3-benzothiazole] gave an IC50 at Q46 protein aggregates of less than 100 nM.

At Q46 protein aggregates, `N#CC1=C(c2cc3cc(O)ccc3o2)N2CCN=C2S1` [3-(5-hydroxy-1-benzofuran-2-yl)-5H,6H-imidazo[2,1-b][1,3]thiazole-2-carbonitrile] yielded a 50% inhibitory concentration (IC50) of less than 100 nM.

As for `O=c1[nH]cc(Br)cc1-c1cc2cc(Br)cnc2o1` [5-bromo-3-{5-bromofuro[2,3-b]pyridin-2-yl}-1,2-dihydropyridin-2-one], the 50% inhibitory concentration (IC50) at Q46 protein aggregates is less than 100 nM.

Take `COc1ccc2oc(-c3cccc4cn[nH]c34)cc2c1` [7-(5-methoxy-1-benzofuran-2-yl)-1H-indazole]: the IC50 on Q46 protein aggregates is less than 100 nM.

As to `C#Cc1cnccc1-c1cc2cc(OC)ccc2o1` [3-ethynyl-4-(5-methoxy-1-benzofuran-2-yl)pyridine], at Q46 protein aggregates, the IC50 was less than 100 nM.

As for `COc1ccc2oc(-c3cccc4[nH]ncc34)cc2c1` [4-(5-methoxy-1-benzofuran-2-yl)-1H-indazole], the concentration for half-maximal inhibition (IC50) on Q46 protein aggregates is less than 100 nM.

`COc1ccc2oc(-c3ccncc3I)cc2c1` [3-iodo-4-(5-methoxy-1-benzofuran-2-yl)pyridine] showed an IC50 at Q46 protein aggregates of 100 to 500 nM.

Molecule `COc1ccc2oc(C3=C(C#N)SC4=NCCN43)cc2c1` [3-(5-methoxy-1-benzofuran-2-yl)-5H,6H-imidazo[2,1-b][1,3]thiazole-2-carbonitrile] returned a 50% inhibitory concentration (IC50) at Q46 protein aggregates of less than 100 nM.

`N#Cc1ccccc1-c1nc2cc3c(cc2o1)OCO3` [2-{4,6,10-trioxa-12-azatricyclo[7.3.0.0^3,^7]dodeca-1(9),2,7,11-tetraen-11-yl}benzonitrile] came in with a 50% inhibitory concentration (IC50) on Q46 protein aggregates of less than 100 nM.

On to `COc1ccc2nc(-c3ccncc3NC(C)=O)sc2c1` [N-[4-(6-methoxy-1,3-benzothiazol-2-yl)pyridin-3-yl]acetamide], for which, on Q46 protein aggregates, the IC50 is less than 100 nM.

In the case of `N#Cc1cnccc1-c1nc2ccc(C(F)(F)F)cc2s1` [4-[6-(trifluoromethyl)-1,3-benzothiazol-2-yl]pyridine-3-carbonitrile], at Q46 protein aggregates, the IC50 is less than 100 nM.

`N#Cc1cnccc1-c1nc2ccccc2s1` [4-(1,3-benzothiazol-2-yl)pyridine-3-carbonitrile] displayed an IC50 at Q46 protein aggregates of more than 500 nM.

Turning to `COc1cc2cc(-c3ccccc3C#N)oc2cn1` [2-{5-methoxyfuro[2,3-c]pyridin-2-yl}benzonitrile], at Q46 protein aggregates, the concentration for half-maximal inhibition (IC50) was less than 100 nM.

`COc1ccc2nc(-c3ccccc3OC)sc2c1` [6-methoxy-2-(2-methoxyphenyl)-1,3-benzothiazole]: the half-inhibitory concentration (IC50) on Q46 protein aggregates was in the range of 100 to 500 nM.

In turn, `Cc1cccc(-c2nc3cc(N)ccc3o2)c1` [2-(3-methylphenyl)-1,3-benzoxazol-5-amine] yielded a 50% inhibitory concentration (IC50) at Q46 protein aggregates of 100 to 500 nM.

With `N#Cc1ccccc1-c1cc2cc(Br)cnc2o1` [2-{5-bromofuro[2,3-b]pyridin-2-yl}benzonitrile], at Q46 protein aggregates, the concentration for half-maximal inhibition (IC50) is less than 100 nM.

In turn, `N#Cc1cnccc1-c1cc2cc(O)ccc2o1` [4-(5-hydroxy-1-benzofuran-2-yl)pyridine-3-carbonitrile] came in with a concentration for half-maximal inhibition (IC50) at Q46 protein aggregates of less than 100 nM.

Turning to `COc1ccc2oc(-c3ccc(C#N)cn3)cc2c1` [6-(5-methoxy-1-benzofuran-2-yl)pyridine-3-carbonitrile], the IC50 at Q46 protein aggregates is less than 100 nM.

With `COc1ccc2oc(-c3cc(CN(C)C)ccc3C#N)cc2c1` [4-[(dimethylamino)methyl]-2-(5-methoxy-1-benzofuran-2-yl)benzonitrile], the IC50 at Q46 protein aggregates is less than 100 nM.

As to `CN(C)c1ccc(/C=C/c2nc3ccc(I)cc3[nH]2)cc1` [SBIM-3, 4-[(E)-2-(6-iodo-1H-benzimidazol-2-yl)ethenyl]-N,N-dimethylaniline], the “binding to NFT” value in assay [1] was “bound NFT in sections of AD brain tissue”. In addition, the “ratio of Kd values” in assay [2] is given as 2.73.

On to `COc1ccc2sc(-c3ccncc3C#N)nc2c1` [4-(5-methoxy-1,3-benzothiazol-2-yl)pyridine-3-carbonitrile], for which the half-inhibitory concentration (IC50) on Q46 protein aggregates was in the range of 100 to 500 nM.

`COc1ccc2oc(-c3cccc(Br)c3C#N)cc2c1` [2-bromo-6-(5-methoxy-1-benzofuran-2-yl)benzonitrile] had a concentration for half-maximal inhibition (IC50) on Q46 protein aggregates of less than 100 nM.

On to `COc1ccc2nc(-c3ccncc3C#N)ccc2c1` [4-(6-methoxyquinolin-2-yl)pyridine-3-carbonitrile], for which the IC50 at Q46 protein aggregates lay within 100 to 500 nM.

As to `COc1ccc2cc(-c3ccncc3C#N)ccc2c1` [4-(6-methoxynaphthalen-2-yl)pyridine-3-carbonitrile], at Q46 protein aggregates, the half-maximal inhibitory concentration (IC50) was 100 to 500 nM.

In turn, `COc1ccc2oc(-c3cccc(CN(C)C)c3C#N)cc2c1` [2-[(dimethylamino)methyl]-6-(5-methoxy-1-benzofuran-2-yl)benzonitrile] came in with an IC50 on Q46 protein aggregates of 100 to 500 nM.

At Q46 protein aggregates, `N#Cc1cnccc1-c1nc2ccc(OCCF)cc2s1` [4-[6-(2-fluoroethoxy)-1,3-benzothiazol-2-yl]pyridine-3-carbonitrile] showed an IC50 of less than 100 nM.

With `COc1ccc2nc(-c3ncccc3C#N)sc2c1` [2-(6-methoxy-1,3-benzothiazol-2-yl)pyridine-3-carbonitrile], the half-maximal inhibitory concentration (IC50) at Q46 protein aggregates was less than 100 nM.

Turning to `COc1ccc2oc(-c3ccncc3)c(Br)c2c1` [4-(3-bromo-5-methoxy-1-benzofuran-2-yl)pyridine], the IC50 on Q46 protein aggregates is less than 100 nM.

For `FCCOc1ccc2nc(-c3ccncc3Br)sc2c1` [2-(3-bromopyridin-4-yl)-6-(2-fluoroethoxy)-1,3-benzothiazole], on Q46 protein aggregates, the IC50 is less than 100 nM.

Turning to `COc1cnc2cc(-c3ccncc3C#N)oc2c1` [4-{6-methoxyfuro[3,2-b]pyridin-2-yl}pyridine-3-carbonitrile], the 50% inhibitory concentration (IC50) at Q46 protein aggregates is less than 100 nM.

Regarding `CN(C)c1ccc2nc(-c3ccncc3C#N)sc2c1` [4-[6-(dimethylamino)-1,3-benzothiazol-2-yl]pyridine-3-carbonitrile], on Q46 protein aggregates, the IC50 was less than 100 nM.

`COc1ccc2oc(-c3ccc(Br)cc3C#N)cc2c1` [5-bromo-2-(5-methoxy-1-benzofuran-2-yl)benzonitrile] gave a half-maximal inhibitory concentration (IC50) on Q46 protein aggregates of less than 100 nM.

With `COc1ccc2nc(-c3ccncc3-c3ccn[nH]3)sc2c1` [6-methoxy-2-[3-(1H-pyrazol-5-yl)pyridin-4-yl]-1,3-benzothiazole], the IC50 at Q46 protein aggregates was in the range of 100 to 500 nM.

In the case of `COc1ccc2oc(-c3ncnc(I)c3C#N)cc2c1` [4-iodo-6-(5-methoxy-1-benzofuran-2-yl)pyrimidine-5-carbonitrile], the concentration for half-maximal inhibition (IC50) on Q46 protein aggregates is more than 500 nM.

In turn, `COc1ccc2oc(-c3ccncc3C#N)c(C)c2c1` [4-(5-methoxy-3-methyl-1-benzofuran-2-yl)pyridine-3-carbonitrile] had an IC50 on Q46 protein aggregates of less than 100 nM.
